Results: US9233163B2, “Hydrolytically releasable prodrugs for sustained release nanoparticle formulations” (The Children's Hospital of Philadelphia, priority 2010, dated 2016)
Blank lines part the entries; values can stand above or below the compound they belong to.

Key:
[1] = system: rat aortic smooth muscle cells (A10); experiment: A10 growth inhibition by PTX derivatives, Alamar Blue assay; assay type: cell-based; conditions: free compound, 2 hr incubation, cell viability 7 days post treatment vs untreated cells
Procedure: Cells seeded at 10% confluency on 96-well plates were incubated with the compounds at indicated PTX molar equivalent doses for 2 hr, and the cell viability was compared to that of untreated cells 7 days post treatment using the Alamar Blue assay.

[2] = Model experiments estimating stability of ester bonds (half-hydrolysis in phosphate buffer); assay type: physicochemical; conditions: pH=7 phosphate buffer at 21-22° C.
Description: Based on the results of the model experiments, paclitaxel 2′-esters with N-acylglycines and acyloxyacetic acids containing highly hydrophobic residues (e.g., derived from cholesterol or tocopherol) are the most suitable for encapsulation in sustained release nanoparticle formulations as rapidly cleavable PTX prodrugs. In the context of in-stent restenosis therapy, these unique designs more effectively confine the drug formulated in magnetically targeted MNP to the stented area. Importantly, the by-products of the prodrug degradation deriving from the anchor and the linking group are all biocompatible endogenous small molecules, rapidly eliminated via natural metabolic pathways.

A10 cells [3] = experiment: Magnetically guided A10 growth inhibition by MNP loaded with PTX derivatives; assay type: cell-based, rat; conditions: compounds formulated in MNP, 5 min exposure, high gradient magnetic field (32.5 T/m), viability 7 days post treatment
Procedure: Polylactide-based MNP were formulated with inclusion of nanocrystalline magnetite by a modification of the emulsification-solvent evaporation method. Ferric chloride hexahydrate and ferrous chloride tetrahydrate (170 and 62.5 mg, respectively) were dissolved in ethanol (2.5 mL) and mixed with freshly prepared aqueous sodium hydroxide (0.5 N, 5 mL). The precipitate was heated for 1 min at 90° C., cooled on ice, and separated on a magnet. The obtained magnetite was stirred with a solution of oleic acid in ethanol (150 mg in 2 mL) at 90° C. for 5 min. Free oleic acid was separated by deionized water. Magnetite was washed with ethanol, dispersed in 8 mL of chloroform, and used to dissolve 100 mg of poly(D,L-lactide) (molecular weight 75,000-120,000 Da) and 15 mg PTX or a PTX prodrug. The organic dispersion was emulsified by sonication on ice in 10 mL of an aqueous solution of bovine serum albumin (1% w/v), and the organic solvent was evaporated under reduced pressure. MNP were washed twice by magnetic decantation, resuspended in 6 mL of aqueous trehalose (10% w/v), passed through a sterile 5 μm filter unit and lyophilized. […]
Cells were incubated with indicated doses of the compounds formulated in MNP for 5 min with or without (mag+ or mag−) the presence of a high gradient magnetic field (average field gradient of 32.5 T/m). Cell viability was determined as above 7 days post treatment.

[4] = In vitro release kinetics and recovery from MNP, external sink method; assay type: physicochemical; conditions: for total recovered (release medium samples and upon experiment termination): MNP diluted 1:500 in phosphate buffer with 2% bovine serum albumin, heptane/1-octanol acceptor, 5-day experiment; for initial drug payload still present in the MNP: at the end of the 5-day experiment, extraction in 1-octanol
Procedure: The release of 2′-PTX-glycol-suc-Chol from MNP was measured in comparison with PTX using the external sink method. A 1:1 mixture of heptane and 1-octanol was used as the acceptor medium to ensure perfect sink conditions. MNP were diluted 1:500 in phosphate buffer containing 2% bovine serum albumin, included to more closely model in vivo conditions. Released drug was assayed spectrophotometrically in the acceptor phase at predetermined timepoints (λ=230 nm). After five days the amount of the compounds remaining in MNP was measured following extraction in 1-octanol.

A10 cells [5] = experiment: A10 inhibition by MNP after 4-day incubation with fetal bovine serum at 37° C. (recovered activity); assay type: cell-based, rat; conditions: MNP incubated 4 days in FBS at 37° C. vs fresh MNP, magnetic conditions, 5-20 ng drug per well
Procedure: MNP loaded with 2′-PTX-glycol-suc-Chol or PTX at 1 mg/mL were diluted 1:500 in fetal bovine serum (FBS), placed on a tube rotator and incubated for 4 days at 37° C. modeling the exposure of stent-targeted MNP to the in vivo environment. MNP suspensions were then applied to A10 cells for 5 min in the presence of a high gradient magnetic field (See Example 9) in a dose range equivalent to 5-20 ng drug per well based on their initial drug loading. Their growth inhibitory effect was compared with that of fresh MNP applied in equivalent dilutions under magnetic conditions, and the ratio between their respective inhibition efficiencies was plotted as Recovered activity, % of control (See FIG. 4).

[6] = Drug release from typical PTX MNP under sink conditions; assay type: physicochemical; conditions: MNP comprising PTX, iron oxides and polylactide carrier
Description: For example in a typical MNP comprising PTX, iron oxides and a polylactide carrier, about 50% and 80% of the drug is released under sink conditions after 4 hr and 24 hr, respectively. This may be too fast for optimal restenosis inhibition, given that the period of vulnerability to restenotic activity may extend for several weeks. It is believed that the large surface area to volume ratio and small linear dimensions of nanoparticles, combined with the relatively low molecular weight of PTX and limited affinity toward the carrier particles, result in the excessively rapid PTX escape from the nanoparticles. To deal with this problem, it has been found necessary to greatly increase the affinity of the PTX for the polymeric carrier. This has now been done by binding PTX to a structure (hereinafter “anchor”) that limits the diffusivity within the MNP compared with that of unbound PTX itself. The resulting PTX-anchor conjugate is a PTX prodrug. Prodrugs according to the invention are converted to the corresponding drugs (e.g., PTX) in vivo in a patient, which may be a human or other animal. The prodrug can be incorporated in the MNP with a high entrapment yield and can provide protracted drug release at the site of arterial injury.

Structure (SMILES): CC(=O)OC1C(=O)C2(C)C(O)CC3OCC3(OC(C)=O)C2C(OC(=O)c2ccccc2)C2(O)CC(OC(=O)C(OC(=O)CCC(=O)OC3CCC4(C)C(=CCC5C4CCC4(C)C(C(C)CCCC(C)C)CCC54)C3)C(NC(=O)c3ccccc3)c3ccccc3)C(C)=C1C2(C)C (stereo not shown) [2′-PTX-suc-Chol]
A10 cell growth inhibition [1]: no growth inhibition

time of half-hydrolysis [2]: 27 days
Structure (SMILES): CCOC(=O)CNC(C)=O [ethyl ester of N-acetylglycine, ethyl esters of N-acetylglycine]

Structure (SMILES): CC(=O)O[C@H]1C(=O)[C@@]2(C)[C@H]([C@H](OC(=O)c3ccccc3)[C@]3(O)CC(OC(=O)[C@H](OC(=O)CNC(=O)CCC(=O)O[C@H]4CC[C@@]5(C)C(=CCC6C7CCC(C(C)CCCC(C)C)[C@@]7(C)CCC65)C4)[C@@H](NC(=O)c4ccccc4)c4ccccc4)C(C)=C1C3(C)C)[C@]1(OC(C)=O)CO[C@@H]1C[C@@H]2O (stereo partly shown) [2′-PTX-glycine-suc-Chol, PTX 2′-[N-(3-cholesteryloxycarbonyl)propionyl]glycinate]
A10 cell growth inhibition [1]: dose-dependent A10 cell growth inhibition | A10 cell growth inhibition, magnetic field (mag+) (A10 cells [3]): comparable to that of MNP loaded with PTX

time of half-hydrolysis [2]: approximately 200 days
Structure (SMILES): CCOC(C)=O [ethyl acetate]

Structure (SMILES): CC(=O)O[C@H]1C(=O)[C@@]2(C)[C@H]([C@H](OC(=O)c3ccccc3)[C@]3(O)CC(OC(=O)[C@H](OC(=O)COC(=O)CCC(=O)O[C@H]4CC[C@@]5(C)C(=CCC6C7CCC(C(C)CCCC(C)C)[C@@]7(C)CCC65)C4)[C@@H](NC(=O)c4ccccc4)c4ccccc4)C(C)=C1C3(C)C)[C@]1(OC(C)=O)CO[C@@H]1C[C@@H]2O (stereo partly shown) [2′-PTX-glycol-suc-Chol, PTX 2′-(3-cholesteryloxycarbonyl)propionyloxyacetate]
A10 cell growth inhibition [1]: dose-dependent A10 cell growth inhibition | A10 cell growth inhibition, magnetic field (mag+) (A10 cells [3]): comparable to that of MNP loaded with PTX | total recovered (release medium samples and upon experiment termination) [4]: 81% | initial drug payload still present in the MNP [4]: 30% | release kinetics from MNP vs. PTX ([4]; external sink method, 5 days): significantly slower release kinetics | Recovered activity, % of control (fraction of initial activity retained) (A10 cells [5]): retained a larger fraction of its initial activity compared to PTX

Structure (SMILES): CCOC(=O)COC(C)=O [ethyl ester of acetoxyacetic acid]
time of half-hydrolysis [2]: 9 days

total recovered (release medium samples and upon experiment termination) [4]: 55% | initial drug payload still present in the MNP [4]: none | drug released ([6]; after 4 hr): about 50% | drug released ([6]; after 24 hr): ~80%
Structure (SMILES): CC(=O)O[C@H]1C(=O)[C@@]2(C)[C@H]([C@H](OC(=O)c3ccccc3)[C@]3(O)C[C@H](OC(=O)[C@H](O)[C@@H](NC(=O)c4ccccc4)c4ccccc4)C(C)=C1C3(C)C)[C@]1(OC(C)=O)CO[C@@H]1C[C@@H]2O [PTX, Paclitaxel]
